Results on three molecules are retold here after patent US20110281957A1, “ENHANCED BIOACTIVE FORMULATIONS OF RESVERATROL” (Lipoprotein Technologies, Inc., priority 2008, published 2011).

Where two headings read alike, the source gives them in different places. Where only a bound is given, the exact number is not on record here.

Data set [1] can be described thus: Solubility in pH 7.4 Hank's Balanced Salt Solution, LC/MS/MS. The settings on record: pH 7.4 buffer, shaken 2 hours, stood overnight at room temperature. The class given is physicochemical. How it is done:
The mixtures were shaken for 2 hours using a benchtop vortexer and left to stand overnight at room temperature. […] After vortexing and standing overnight, the resveratrol gel formulation mixture was centrifuged at 14,000 rpm for 10 minutes. The filtrate or supernatant was sampled twice, consecutively, and diluted 10, 100, and 10.000-fold in a mixture of 50:50 assay buffer:acetonitrile prior to analysis. Both mixtures were assayed by LC/MS/MS using electrospray ionization against the standards prepared in a mixture of 50:50 assay buffer:acetonitrile. Standard concentrations ranged from 1.0 μM down to 3.0 nM.

Data set [2] is described as follows: Visual clarity of the resveratrol/surfactant mixture on addition to water. The settings on record: polyoxyl 40 castor oil (macrogoglycerol hydroxystearate) as the surfactant. In kind it is physicochemical.
Method: Water soluble compositions of trans-resveratrol were formulated containing the non-ionic surfactant macrogolglycerol hydroxystearate (polyoxyl 40 castor oil). By heating and stirring this polyoxyl castor oil with a powdered synthetic 99% trans-resveratrol, a clear viscous solution was formed containing dissolved trans-resveratrol (hereinafter referred to as “resveratrol gel formulation”). The resveratrol gel formulation consisted of macrogolglycerol hydroxystearate 40 (50 ml) and powdered trans-resveratrol (3 grams), representing a concentration of 6% for the resveratrol in the surfactant.
The following formulation was prepared as described below: 500 mg of purified resveratrol 99% derived from polygonum cuspidatum (Japanese knotweed) was dissolved in 25 ml of warm macrogoglycerol hydroxystearate until a clear gel was formed. 250 mg of ascorbic acid was added to the clear gel, which was then slowly added to 100 ml of warm water.
The test system of data set [3] is breast cancer (MCF-7) cells. The settings on record: MCF-7 cells in vitro; cited from earlier work.
Data set [4] deals with ovarian cancer (A-2780) cells. The settings on record: A-2780 cells in vitro; cited from earlier work.
The conditions of data set [5]: cited from earlier work.
The conditions of data set [6]: humans, up to 4 g; cited from earlier work.

In the case of `Oc1ccc(/C=C/c2cc(O)cc(O)c2)cc1` [Powdered Resveratrol, trans-3,5,4′-trihydroxystilbene], the solubility was 0.5 µM in data set [1] (Hank's Balanced Salt Solution buffer, pH 7.4, aqueous buffer, thermodynamic from solid, average of 2 replicates, read-out: Solubility AVG); 0.4 µM in data set [1] (Hank's Balanced Salt Solution buffer, pH 7.4, aqueous buffer, thermodynamic from solid, replicate 1, read-out: Solubility Rep 1); 0.61 µM in data set [1] (Hank's Balanced Salt Solution buffer, pH 7.4, aqueous buffer, thermodynamic from solid, replicate 2, read-out: Solubility Rep 2); 0.505 µM in data set [1] (average of 2 replicates, read-out: Solubility AVG).
As for `Oc1ccc(C=Cc2cc(O)cc(O)c2)cc1` [Resveratrol, 3,5,4′-trihydroxystilbene], in data set [2], the “Maximum concentration in surfactant for a crystal-clear solution in water” value is not above 20%. The Inhibition of proliferation result in data set [3] and in data set [4] was “inhibited the proliferation” in each case. Also, the Solubility in water entry in data set [5] is “insoluble in water”.
Take `O=c1c(O)c(-c2ccc(O)c(O)c2)oc2cc(O)cc(O)c12` [quercetin]: the “Detection in plasma after oral administration” value in data set [6] is “No quercetin could be found in plasma”.
